2 molecules from patent publication US20070232647A1, “Use of Ppar Agonists to Treat Ruminants” (priority 2004, published 2007) can be followed below.

Experiment [1] relates to Holstein cows. In words: Average daily milk yield over sixty days after calving. It is filed as in vivo. The note with it: approximately 0.5 mg/kg SC on day of calving and day five post-calving, increased from 41.8 (placebo), p=0.052, FIG. 6. The protocol: One hundred twenty four pregnant, non-lactating Holstein cows were allocated to two treatment groups (placebo and COMPOUND (at approximately 0.5 mg/kg). In this Example COMPOUND is (3S)-3-[3-(1-Carboxy-1-methyl-ethoxy)-phenyl]-piperidine-1-carboxylic acid, 4-trifluoromethyl-benzyl ester. Animals were allowed to calve, treated by subcutaneous injection on the day of calving and on day five post-calving. Disease events and daily milk production were recorded for the following sixty days. The average daily milk yield in the treated cows was increased from 41.8 to 43.2 kg/day (p=0.052). Results are shown in FIG. 6.

The subject of experiment [2] is mid-lactation cows. In words: Serum glucose levels, Example 1: PK/PD of two PPAR alpha agonists given IV and SC. It is filed as in vivo. The note with it: 0.5 mg/kg IV or SC, regardless of route of administration; blood samples up to 72 hours; FIG. 1. The protocol: Both compounds were administered by IV and SC routes, as outlined in the table below.
All animals were bled one day prior, and 15 minutes prior, to compound administration. Blood samples were collected from animals treated via IV at 5 and 10 minutes post compound administration. Blood samples were collected from all animals at 0.5, 1, 2, 4, 6, 24, 30, 48, 54, and 72 hours post compound administration. Samples were analyzed for glucose concentrations using a Dade Behring Dimension RXL serum chemistry analyzer. […] Other commercially available, standard apparatus for testing glucose levels can also be used.

In the case of `CC(C)(Oc1cccc([C@@H]2CCCN(C(=O)OCc3ccc(C(F)(F)F)cc3)C2)c1)C(=O)O` [Compound A, (3S)-3-[3-(1-Carboxy-1-methyl-ethoxy)-phenyl]-piperidine-1-carboxylic acid 4-trifluoromethyl-benzyl ester], the “average daily milk yield” value in experiment [1] worked out at 43.2 kg/day.

Take `Cc1ccc(-c2ccc(NS(=O)(=O)c3ccc(C)c(C(=O)O)c3)cc2)cc1` [Compound X, 2-Methyl-5-(4′-methyl-biphenyl-4-ylsulfamoyl)-benzoic acid]: the “glucose concentration relative to baseline values” in experiment [2] is listed as “increase in glucose”.
